Key:
Assay in all cases: relative viability (nuclei count vs DMSO), 5 days (fraction); higher = more cells survive
[1] = compound: COCC[n+]1c2c(n(Cc3cnccn3)c1C)C(=O)c1ccccc1C2=O [YM155] + NC(=O)Nc1cc(-c2cccc(F)c2)sc1C(=O)N[C@H]1CCCNC1 [AZD7762] (partner 0.2 µM)
How it was run: (§1)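 Nuclei were stained with Hoechst during a one-step fixation (final 0.05% Triton X-100, 1% formaldehyde, 1 ug/ml Hoechst) carried out 5 days after dosing, then counted on 4× images. The cells, lung cancer lines in 1536-well plates, had been dosed by pin tool the day after seeding with one drug alone or a fixed anchor-drug dose plus five library-drug doses (not always all listed) in √10 steps. Relative viability is the nuclei count in treated wells divided by that in vehicle wells, and each value is the median of duplicate plates.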

[2] = compound: CC(C)(C)c1cc(NC(=O)Nc2ccc(-c3cn4c(n3)sc3cc(OCCN5CCOCC5)ccc34)cc2)no1 [Quizartinib] + Cc1nc(NC(=O)N2CCC[C@H]2C(N)=O)sc1-c1ccnc(C(C)(C)C(F)(F)F)c1 [Alpelisib] (partner 2 µM)
How it was run: as §1

[3] = compound: COCC[n+]1c2c(n(Cc3cnccn3)c1C)C(=O)c1ccccc1C2=O [YM155] + CC(C)C[C@H](NC(=O)[C@H](Cc1ccccc1)NC(=O)c1cnccn1)B(O)O [Bortezomib] (partner 0.002 µM)
How it was run: as §1

[4] = compound: COCC[n+]1c2c(n(Cc3cnccn3)c1C)C(=O)c1ccccc1C2=O [YM155] + CC(=O)c1c(C)c2cnc(Nc3ccc(N4CCNCC4)cn3)nc2n(C2CCCC2)c1=O [Palbociclib] (partner 0.5 µM)
How it was run: as §1

Cell Line	relative viability ([1]; first compound 0.002 µM)	relative viability ([1]; first compound 0.006325 µM)	relative viability ([1]; first compound 0.02 µM)	relative viability ([1]; first compound 0.06325 µM)	relative viability ([2]; first compound 0.001 µM)	relative viability ([2]; first compound 0.003162 µM)	relative viability ([2]; first compound 0.01 µM)	relative viability ([2]; first compound 0.03162 µM)	relative viability ([2]; first compound 0.1 µM)	relative viability ([3]; first compound 0.002 µM)	relative viability ([3]; first compound 0.006325 µM)	relative viability ([3]; first compound 0.02 µM)	relative viability ([3]; first compound 0.06325 µM)	relative viability ([4]; first compound 0.002 µM)	relative viability ([4]; first compound 0.006325 µM)	relative viability ([4]; first compound 0.02 µM)	relative viability ([4]; first compound 0.06325 µM)
RERF-LC-KJ	1.04	1.19	1.06	1.03	0.78	0.597	0.782	0.747	0.69	1.11	1.18	1.09	1.25	1.09	1.1	1.02	0.985
NCI-H1734	0.489	0.582	0.614	0.539	0.561	0.716	0.642	0.699	0.665	1	0.818	1.04	0.99	0.362	0.313	0.374	0.345
201T	0.592	0.639	0.561	0.698	0.759	0.957	0.988	0.987	0.982	1.04	1.13	1.09	1.06	0.367	0.339	0.361	0.369
HCC-827	0.224	0.293	0.239	0.241	0.952	0.858	0.965	0.976	0.987	1.01	1.04	1.02	0.912	0.511	0.481	0.505	0.552
LCLC-97TM1	0.158	0.251	0.231	0.096	–	0.22	0.267	0.261	0.252	0.313	0.74	0.621	0.185	–	0.232	0.241	0.19
NCI-H441	0.947	1.23	1.09	0.246	0.656	0.541	0.885	0.733	0.779	0.452	0.407	0.466	0.446	0.224	0.202	0.267	0.213
NCI-H838	0.936	0.904	0.932	0.726	0.876	0.942	0.958	0.968	0.593	0.94	1.01	0.958	0.817	0.191	0.237	0.226	0.198
NCI-H1437	1.11	1.08	1.1	0.926	0.911	0.883	1.13	0.749	0.711	0.501	0.501	0.516	0.519	0.245	0.329	0.309	0.298
LXF-289	1.1	1.07	1.07	0.937	0.992	0.999	1.1	1.01	0.947	0.944	0.93	0.989	1.02	0.584	0.628	0.612	0.605
LU99A	0.553	0.27	0.412	0.28	0.448	0.512	0.627	0.517	0.431	1.17	1.11	1.16	0.965	0.416	0.403	0.388	0.409
HOP-62	0.484	0.427	0.902	0.43	0.75	0.706	1.19	1.26	0.907	0.737	0.752	0.763	0.696	0.484	0.441	0.42	0.437
NCI-H1915	0.728	0.659	0.662	0.553	1.03	1.01	1.06	1.11	1.16	0.945	0.972	0.957	0.918	0.494	0.533	0.539	0.552
HCC-44	1.04	1.06	1.07	0.976	0.798	0.78	0.864	0.825	0.638	0.871	0.908	0.968	0.936	0.975	1.01	0.928	1
HARA	–	0.542	0.521	0.499	0.485	0.78	0.893	0.791	0.749	1.06	1.1	1.14	1.04	0.235	0.262	0.328	0.211
HCC-366	0.315	0.28	0.327	0.273	0.348	0.31	0.448	0.404	0.358	1.1	1.1	0.917	1.02	0.37	0.412	0.439	0.27

— the supplement of paper PMC10307832
